Consider 20 compounds from US8217029B2, “Oxazolidinone antibiotics” (Actelion Pharmaceuticals Ltd, priority 2007, dated 2012).

Converted amounts (≈) assume the structure as drawn. Some results are limits rather than exact numbers.

This experiment concerns S aureus A798. Nature of the experiment: Minimal inhibitory concentration (MIC), microdilution method in cation-adjusted Mueller-Hinton Broth following NCCLS guidelines. To be noted: pH of test medium 7.2-7.3. The experiment is classed as cell-based. In outline:
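MICs (mg/l) came from NCCLS-guided microdilution, using cation-adjusted Mueller-Hinton medium adjusted to pH 7.2-7.3.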
For orientation: Broth dilution looks for growth in wells or tubes with falling amounts of substance.

For `COc1ccc2nccc(N3CC[C@@H](NC[C@@H]4CN(c5ccc(C)c(F)c5)C(=O)O4)C3)c2n1` [Example 68, (R)-3-(3-Fluoro-4-methyl-phenyl)-5-{[(R)-1-(6-methoxy-[1,5]naphthyridin-4-yl)-pyrrolidin-3-ylamino]-methyl}-oxazolidin-2-one], 0.063 µg/mL (≈ 0.14 µM) was the least that counted as inhibitory (MIC).

Turning to `COc1ccc2nccc(N3CC[C@H](NC[C@@H]4CN(c5ccc6c(c5)NC(=O)CO6)C(=O)O4)C3)c2n1` [Example 69, 6-((R)-5-{[(S)-1-(6-Methoxy-[1,5]naphthyridin-4-yl)-pyrrolidin-3-ylamino]-methyl}-2-oxo-oxazolidin-3-yl)-4H-benzo[1,4]oxazin-3-one], the MIC was at most 0.031 µg/mL. Still for that read-out and setting: the result for `COc1ccc2nccc(N3CC[C@H](NC[C@@H]4CN(c5ccc6c(c5)NC(=O)CS6)C(=O)O4)C3)c2n1` [Example 70, 6-((R)-5-{[(S)-1-(6-Methoxy-[1,5]naphthyridin-4-yl)-pyrrolidin-3-ylamino]-methyl}-2-oxo-oxazolidin-3-yl)-4H-benzo[1,4]thiazin-3-one] reads at most 0.031 µg/mL; that for `COc1ccc2nccc(N3CC[C@@H](NC[C@@H]4CN(c5ccc6c(c5)NC(=O)CS6)C(=O)O4)C3)c2n1` [Example 71, 6-((R)-5-{[(R)-1-(6-Methoxy-[1,5]naphthyridin-4-yl)-pyrrolidin-3-ylamino]-methyl}-2-oxo-oxazolidin-3-yl)-4H-benzo[1,4]thiazin-3-one], at most 0.031 µg/mL; that for `COc1ccc2nccc(N3CC[C@@H](NC[C@@H]4CN(c5ccc6c(c5)NC(=O)CO6)C(=O)O4)C3)c2n1` [Example 72, 6-((R)-5-{[(R)-1-(6-Methoxy-[1,5]naphthyridin-4-yl)-pyrrolidin-3-ylamino]-methyl}-2-oxo-oxazolidin-3-yl)-4H-benzo[1,4]oxazin-3-one], at most 0.031 µg/mL. `COc1ccc2nccc(N3C[C@H](NC(=O)[C@@H]4CN(c5ccc6c(c5)OCCO6)C(=O)O4)C[C@H]3CO)c2n1` [Example 78, (S)-3-(2,3-Dihydro-benzo[1,4]dioxin-6-yl)-2-oxo-oxazolidine-5-carboxylic acid [(3R,5S)-5-hydroxymethyl-1-(6-methoxy-[1,5]naphthyridin-4-yl)-pyrrolidin-3-yl]-amide] gave an MIC of at most 0.031 µg/mL. `COc1ccc2nccc(N3C[C@H](NC[C@@H]4CN(c5ccc6c(c5)NC(=O)CS6)C(=O)O4)C[C@H]3CO)c2n1` [Example 79, 6-((R)-5-{[(3R,5S)-5-Hydroxymethyl-1-(6-methoxy-[1,5]naphthyridin-4-yl)-pyrrolidin-3-ylamino]-methyl}-2-oxo-oxazolidin-3-yl)-4H-benzo[1,4]thiazin-3-one]: the MIC was found to be 0.25 µg/mL (≈ 0.466 µM). As for `COc1ccc2nccc(N3CC4C(C3)C4NC[C@@H]3CN(c4ccc(C)c(F)c4)C(=O)O3)c2n1` (stereo partly drawn) [Example 88, (R)-3-(3-Fluoro-4-methyl-phenyl)-5-{[(1a,5a,6a)-3-(6-methoxy-[1,5]naphthyridin-4-yl)-3-aza-bicyclo[3.1.0]hex-6-ylamino]-methyl}-oxazolidin-2-one], the “MIC S aureus A798” value was 0.125 µg/mL (≈ 0.27 µM). Still for that read-out and setting: the result for `COc1ccc2nccc(N3CC4C(C3)C4NC[C@@H]3CN(c4ccc5c(c4)NC(=O)CS5)C(=O)O3)c2n1` (stereo partly drawn) [Example 89, 6-((R)-5-{[(1α,5α,6α)-3-(6-Methoxy-[1,5]naphthyridin-4-yl)-3-aza-bicyclo[3.1.0]hex-6-ylamino]-methyl}-2-oxo-oxazolidin-3-yl)-4H-benzo[1,4]thiazin-3-one] reads “<=0.031 mg/l”.

As for `COc1ccc2nccc(N3CCN(C[C@@H]4CN(c5ccc6c(c5)NC(=O)CO6)C(=O)O4)CC3)c2n1` [Example 96, 6-{(R)-5-[4-(6-Methoxy-[1,5]naphthyridin-4-yl)-piperazin-1-ylmethyl]-2-oxo-oxazolidin-3-yl}-4H-benzo[1,4]oxazin-3-one], the MIC is at most 0.031 µg/mL. Still for that read-out and setting: the same measure for `COc1ccc2ncc(F)c(N3CCN(C[C@@H]4CN(c5ccc6c(c5)NC(=O)CO6)C(=O)O4)CC3)c2n1` [Example 97, 6-{(R)-5-[4-(3-Fluoro-6-methoxy-[1,5]naphthyridin-4-yl)-piperazin-1-ylmethyl]-2-oxo-oxazolidin-3-yl}-4H-benzo[1,4]oxazin-3-one]: at most 0.031 µg/mL; for `COc1ccc2ncc(F)c(N3CCN(C[C@@H]4CN(c5ccc6c(c5)NC(=O)CS6)C(=O)O4)CC3)c2n1` [Example 98, 6-{(R)-5-[4-(3-Fluoro-6-methoxy-[1,5]naphthyridin-4-yl)-piperazin-1-ylmethyl]-2-oxo-oxazolidin-3-yl}-4H-benzo[1,4]thiazin-3-one]: at most 0.031 µg/mL; for `O=C1O[C@H](CN2CCN(c3ccnc4ccccc34)CC2)CN1c1ccc2c(c1)OCCO2` [Example 99, (R)-3-(2,3-Dihydro-benzo[1,4]dioxin-6-yl)-5-(4-quinolin-4-yl-piperazin-1-ylmethyl)-oxazolidin-2-one]: at most 0.031 µg/mL. As to `COc1ccc2nccc(N3CCN(C[C@@H]4CN(c5ccc6c(c5)NC(=O)CS6)C(=O)O4)CC3=O)c2n1` [Example 101, 6-{(R)-5-[4-(6-Methoxy-[1,5]naphthyridin-4-yl)-3-oxo-piperazin-1-ylmethyl]-2-oxo-oxazolidin-3-yl}-4H-benzo[1,4]thiazin-3-one], the MIC was 0.5 µg/mL (≈ 0.96 µM).

In turn, `COc1ccc2ncc(F)c(N3CCCN(C[C@@H]4CN(c5ccc6c(c5)NC(=O)CO6)C(=O)O4)CC3)c2n1` [Example 103, 6-{(R)-5-[4-(3-Fluoro-6-methoxy-[1,5]naphthyridin-4-yl)-[1,4]diazepan-1-ylmethyl]-2-oxo-oxazolidin-3-yl}-4H-benzo[1,4]oxazin-3-one] returned an MIC of at most 0.031 µg/mL.

`COc1ccc2ncc(F)c(N3CCCN(C[C@@H]4CN(c5ccc6c(c5)NC(=O)CS6)C(=O)O4)CC3)c2n1` [Example 104, 6-{(R)-5-[4-(3-Fluoro-6-methoxy-[1,5]naphthyridin-4-yl)-[1,4]diazepan-1-ylmethyl]-2-oxo-oxazolidin-3-yl}-4H-benzo[1,4]thiazin-3-one] registered an MIC of at most 0.031 µg/mL. The same measure, in the same setting: the result for `COc1ccc2nccc(N3CCCN(C[C@@H]4CN(c5ccc6c(c5)NC(=O)CO6)C(=O)O4)CC3)c2n1` [Example 105, 6-{(R)-5-[4-(6-Methoxy-[1,5]naphthyridin-4-yl)-[1,4]diazepan-1-ylmethyl]-2-oxo-oxazolidin-3-yl}-4H-benzo[1,4]oxazin-3-one] reads at most 0.031 µg/mL.

For `COc1ccc2nccc(N3CCCN(C[C@@H]4CN(c5ccc6c(c5)NC(=O)CS6)C(=O)O4)CC3)c2n1` [Example 106, 6-{(R)-5-[4-(6-Methoxy-[1,5]naphthyridin-4-yl)-[1,4]diazepan-1-ylmethyl]-2-oxo-oxazolidin-3-yl}-4H-benzo[1,4]thiazin-3-one], the MIC was at most 0.031 µg/mL. The same measure, in the same setting: the result for `COc1ccc2nccc(N3CCCN(C[C@@H]4CN(c5ccc6c(c5)OCCO6)C(=O)O4)CC3)c2n1` [Example 107, (R)-3-(2,3-Dihydro-benzo[1,4]dioxin-6-yl)-5-[4-(6-methoxy-[1,5]naphthyridin-4-yl)-[1,4]diazepan-1-ylmethyl]-oxazolidin-2-one] reads at most 0.031 µg/mL; that for `COc1ccc2nccc(N3CCCN(C[C@@H]4CN(c5ccc(C)c(F)c5)C(=O)O4)CC3)c2n1` [Example 108, (R)-3-(3-Fluoro-4-methyl-phenyl)-5-[4-(6-methoxy-[1,5]naphthyridin-4-yl)-[1,4]diazepan-1-ylmethyl]-oxazolidin-2-one], 0.25 µg/mL (≈ 0.537 µM).

A word on the MIC: it is the lowest concentration found to suppress growth. Read a high MIC as a need for much substance.
